According to a melting point compilation (Tetko et al.; mined from patent text by program, amines drawn as free bases though some values may be those of a salt):
Residues, ends and D or L forms follow the SMILES beside them. *: point of attachment. Tos = Cc1ccc(S(=O)(=O)*)cc1; NHPh = c1ccc(N*)cc1

Row | melting point [°C] | SMILES
1 | 161 to 162 | CC1=C(C(=O)c2ccc(Br)cc2)C(=O)C2C(O)=CC=CC2C1=O (stereo not drawn)
2 | 210 to 212 | CCCNC(=O)N(C)Cc1cccc2c1C(=O)N(C1CCC(=O)NC1=O)C2=O (stereo not drawn)
3 | 252 to 253 | CC(=O)n1cc(C2=C(c3cn(C)c4ccccc34)C(=O)NC2=O)c2ccccc21
4 | 125 to 127 | CC(C)c1ccc(C(=O)N2CCCCC2)c(NS(=O)(=O)c2cccc3nsnc23)c1
5 | 233 | COc1ccc(C=CC(=O)N2CCc3c([nH]c4ccccc34)C2c2ccc3c(c2)OCO3)cc1OC (stereo not drawn)
6 | 225 to 227 | CNc1nc(-c2cccc(-c3cncc(OC)c3)c2)c2cc(OC)c(OC)cc2n1
7 | 158 to 159 | CC(=O)c1ccc2c(c1)ncn2-c1cccc(-c2ccccn2)c1
8 | 179 to 180 | NC(=O)N1C(=O)Cc2ccccc21
9 | 200 to 201 | CCCn1nc2c(N)nc3ccccc3c2c1NC
10 | 289 to 294 | Oc1nc(-c2ccc3c(c2)CCO3)nc2ccccc12
11 | 121 | Cn1cncc1C(O)(c1ccc(F)cc1)c1ccc2c(c1)C(c1cccc(Cl)c1)Nc1nnnn1-2 (stereo not drawn)
12 | 97 to 99 | O=[N+]([O-])c1cc(Cl)ccc1N1CCc2ccccc21
13 | 129 to 130 | COC(=O)C(Cc1c[nH]c2ccccc12)NC(=S)c1ccc2c(c1)OCO2 (stereo not drawn)
14 | 116 to 117 | COc1ccc(SCc2ccccc2)c(Cl)c1Cl
15 | 132 to 133 | COC(=O)c1cc2cc(SCc3sc(-c4ccc(C(F)(F)F)cc4)nc3C)ccc2o1
16 | 159 to 160 | CC(C(N)=O)c1ccc2c(c1)Oc1ccccc1CC2=O (stereo not drawn)
17 | 113 to 114 | O=C(CNc1ccc2[nH]ncc2c1)N1CCC(Cc2ccc(F)cc2)CC1
18 | 125 to 126 | c1ccc2nc(CSc3nc4cccc5c4n3CCC5)ccc2c1
19 | 161 to 163 | CCCOc1ccc(-c2c(Cl)ncn2-c2ccc(S(C)(=O)=O)cc2)cc1
20 | 87 to 88 | O=C(OC1CCCC1=O)c1ccccc1 (stereo not drawn)
21 | 191 to 193 | CC(C)n1nc(-c2nc(C3=CCCN(C)C3)c(N)nc2-c2ccccc2)ccc1=O
22 | 159 to 160 | O=C1C(c2ccccc2)=C(c2ccccc2)C(=O)N1C1CCCCC1
23 | 201 to 203 | CNc1nc(-c2ccc(-c3ccccc3)s2)c2cc(OC)c(OC)cc2n1
24 | 218 to 221 | CCOCc1nc2c(N)nc3ccc(O)cc3c2n1CCCCNC(=O)Nc1ccccc1
25 | 258 to 260 | O=Cc1ccccc1-c1ccc(C(=O)Nc2ccc3cccnc3c2)cc1
26 | 247 to 248 | CC(=O)Nc1cccc(-c2c(C)c(NC(=O)CC(C)(C)C)c(C)c3c2OCC3c2ccc(C(C)C)cc2)c1 (stereo not drawn)
27 | 106 to 108 | CCCCC(=O)N(Cc1ccc(-c2ccccc2-c2nnn[nH]2)cc1)C(C(=O)OCc1ccccc1)C(C)C (stereo not drawn)

Row | melting point [°C] | SMILES
28 | 191 to 192 | Clc1cc(Cl)c2cccc3c2c1N=C3NCCCCCn1ccnc1
29 | 216 to 218 | NC(=O)C=Cc1cccc(NC(=O)c2cc(-c3cccc(F)c3)ccc2F)c1
30 | 106 to 107 | O=C(c1ccc(F)cc1)c1ccc(Br)cc1
31 | 182 to 185 | CN(CCN(C)c1nc2ccccc2n1Cc1ccc(F)cc1)C(=O)OC(C)(C)C
32 | 275 to 276 | O=C1C(=O)c2ccccc2C2=C1SCC1(CCN(S(=O)(=O)c3ccc(Cl)c(Cl)c3)CC1)O2
33 | 218 to 220 | CC(C)(C)n1c(=O)[nH]c2ccccc2c1=O
34 | 271 to 272 | O=c1cc(-c2ccccc2)sc2c1[nH]c1ccccc12
35 | 145 to 146 | Cc1ccccc1-c1nc(-c2ccccc2)c[nH]1
36 | 110 to 111 | CC(C)c1cn2ccccc2c1S(=O)(=O)c1ccc(OCC2CO2)cc1 (stereo not drawn)
37 | 130 to 134 | CC(C)c1cccc(C(C)C)c1NC(=O)NS(=O)(=O)Cl
38 | 106 to 109 | CC(C)(C)c1cc(CCc2ccccc2NC(=O)NC2CCN(Cc3ccccn3)CC2)cc(C(C)(C)C)c1O
39 | 115 to 117 | Cc1nn(-c2cc(Oc3ccc([N+](=O)[O-])cc3)c(Cl)cc2F)c(=O)n1C(F)F
40 | 138 | COC(=O)Cc1sc(=S)[nH]c1COc1ccccc1
41 | 108 to 111 | CCOC(=O)COc1ccc2c(c1)C[C@@H](NC[C@H](O)c1ccccc1)CC2
42 | 141 to 142 | CC(=O)Oc1ccc2cccc(OCC(=O)c3ccccc3)c2n1
43 | 236 to 238 | COc1ccc(C(CC(=O)O)N2C(=O)C3C=C(Cl)C(Cl)=C(Cl)C3(Cl)C2=O)cc1 (stereo not drawn)
44 | 176 to 178 | COc1ccc(-c2nc(C(=O)N3CCN(C(C)=O)CC3)sc2-c2ccc(OC)cc2)cc1
45 | 124 to 125 | Cc1oc(-c2ccccc2)nc1COc1ccc(CON=C(CCC(=O)O)c2ccco2)cc1
46 | 143 to 144 | COc1ccc(CNc2nc(SC)ncc2C(=O)NCc2ccccn2)cc1Cl
47 | 218 to 220 | COC(=O)C1=C(O)c2ccc3ccccc3c2S(=O)(=O)N1
48 | 90 to 96 | COc1ccc(Oc2c(Cl)cc(-n3ncc(=O)[nH]c3=O)cc2Cl)cc1NS(=O)(=O)c1ccc(F)cc1
49 | 72 to 74 | O=S(=O)(c1ccccc1)C(F)(F)C(O)c1ccco1 (stereo not drawn)
50 | 145 to 147 | Cc1ccc(S(=O)(=O)N[C@@H](C)C(=O)N2CCC[C@H]2C(=O)Nc2ccccc2)cc1 (Tos-Ala-Pro-NHPh)
51 | 260 | CCn1c(N)c(C(=O)NC)c(=O)c2ccc(-c3ccc(CC(=O)O)cc3)nc21
52 | 262 to 264 | Oc1ccc2c(-c3cccc4ccc(O)cc34)noc2c1
53 | 223 to 225 | Cc1c(SCCN2CCOCC2)ccnc1CSc1nc2ccccc2n1CC(=O)O

More lines, now with the values behind:

Row | SMILES | melting point [°C]
54 | O=C(O)c1nn(-c2c(Cl)cc(C(F)(F)F)cc2Cl)cc1OC(F)F | 180 to 183
55 | N#Cc1ccc(OCC(=O)O)cc1F | 150 to 152
56 | COc1ccc2c(-c3cc(F)ccc3F)noc2c1 | 121 to 122
57 | C[C@H]1CCCC(C)(C)[C@@H]1[C@H](O)c1ccc(C#N)cc1 | 106 to 108
58 | Nc1nn2cc(-c3ccc([N+](=O)[O-])o3)nc2s1 | 257 to 258
59 | COc1cc(N)c(Cl)cc1C(=O)NCC1CCN(CCCCCC(=O)c2cccs2)CC1 | 115 to 118
60 | c1ccc(SCC2=NCCN2)cc1 | 84 to 85.6
61 | Oc1ccc(Nc2ncc3ncc(Cl)cc3n2)cc1 | 232 to 234
62 | Oc1cccc(SCCCSc2ccc(Cl)cc2)c1 | 102
63 | COc1cc(C)c(C(=O)CCCCCCCCCCCO)c(O)c1OC | 82
64 | CC1NS(=O)(=O)c2sccc21 (stereo not drawn) | 79 to 81
65 | CCOC(=O)c1cn(C2CC2)c2c(F)c(CCc3cc(Cc4cnc(N)nc4N)cc(OC)c3OC)c(F)cc2c1=O | 218 to 220
66 | Clc1cccc(CSc2ccncc2)c1 | 222 to 224
67 | O=C1Nc2cc(Cl)ccc2OC1CCCBr (stereo not drawn) | 157 to 158
68 | NC(=O)CN1C(=O)C[C@@H]2CCC[C@@H]21 (relative stereo) | 142 to 144
69 | CCc1nc2c(N)nc3cc(Br)cnc3c2n1CC(C)(C)O | 235 to 236
70 | CC(CNC(=O)OC(C)(C)C)C(=O)NC(CC(=O)OCc1ccccc1)C(N)=O (mixture of isomers) | 135 to 136
71 | Nc1c2c(nc3cccc(F)c13)C1CCC2C1 (stereo not drawn) | 173
72 | NC(=O)c1cccc(OCCF)c1OCCF | 100 to 101
73 | COC(=O)c1cc(OP(=O)(OC)OC)c(C(=O)OC)s1 | 60
74 | CC(C)c1sc(C#N)c2c1C(=O)CC(C)(C)C2 | 59 to 60
75 | NS(=O)(=O)Cc1nc(-c2ccc(Cl)c(Cl)c2)cs1 | 187 to 190
76 | O=C(Nc1ccc(-n2nc(C(F)(F)F)cc2C(F)(F)F)cc1)c1cccnc1F | 110 to 112
77 | Cc1c(F)c(N)cc([N+](=O)[O-])c1F | 106 to 107
78 | Nc1ccc(-c2nc3n(c2-c2ccc(N)cc2)CCS3)cc1 | 205 to 206

Row | SMILES | melting point [°C]
79 | C#Cc1cccc(OCC2=CC=C(CO)SS2)c1 | 70.5 to 71.5
80 | O=C1CCCC2=C1C(c1cccnc1)C1=C(CCS1)N2 (stereo not drawn) | > 250
81 | CCOC(=O)Cc1ccc(NC(=O)N2CCn3c(c(C(N)=O)c(C#N)c3C3CC3)C2)cc1 | 263 to 264
82 | CCOC(=O)C1=C(C)NN=C(C(=O)OC)C1c1cccnc1 (stereo not drawn) | 179
83 | CCCCOc1nc(N)c2[nH]c(=O)n(CCCCN(CCN3CCOCC3)Cc3cccc(CC(=O)OC)c3)c2n1 | 189 to 190
84 | CC(C)(CN1CCCCC1)Nc1ccnc2cc(Cl)ccc12 | 143 to 147
85 | CC(C)Nc1nc(Nc2cccc(NS(C)(=O)=O)c2)nc2[nH]cnc12 | 161 to 165
86 | CCCCCCCCCCCCS(=O)(=O)c1cc(C(=O)O)c([N+](=O)[O-])c(S(=O)(=O)CCCCCCCCCCCC)c1 | 153 to 154
87 | CN1CCC(=C2c3ccc(Cl)cc3CCn3ccnc32)CC1 | 187
88 | Nc1c(Br)cc(Oc2cc(Br)c(N)c(Br)c2)cc1Br | 166 to 167
89 | O=Cc1ccc(N2CCC(O)CC2)cc1 | 115 to 118
90 | C=C1CSc2sccc2C1=O | 64 to 65
91 | Clc1cc(Cl)n2c(-c3cccs3)ncc2n1 | 152 to 153
92 | CC(C)C(Br)C(=O)Nc1ccccc1O (stereo not drawn) | 110 to 111
93 | CCN(CC)C(=O)COc1nc(C(F)(F)F)ns1 | 60
94 | Cc1nn(C2CCCC2C)c(N)c1C#N (stereo not drawn) | 158 to 159
95 | COc1cc2c(cc1N1CCN(CC3=CC4=CSCC4=C3)CC1)OCC2 | 156 to 158
96 | CC(C#N)Oc1ccc(Oc2ccc(C(F)(F)F)cc2)cc1 (stereo not drawn) | 53 to 56
97 | CC(C)(CCl)C(=O)N(O)c1ccccc1 | 120 to 121
98 | COc1c(C)c(NC(=O)NCCO)c(C)c2c1OCC2c1ccc(C(C)C)cc1 (stereo not drawn) | 127 to 129
99 | N#CC(C#N)=CN(N=C(C#N)C#N)c1ccc(F)cc1F | 140 to 142
100 | CCOC(=O)c1ccc(Sc2cc3c(cc2C)C(C)(C)CCC3(C)C)cc1 | 109 to 110
101 | CCCCCCCC(=O)CCCCCC(=O)N[C@@H](C)C(=O)OC | 61 to 64
102 | Cc1csc(Cl)c1NC(=S)Nc1cscc1N | 132 to 135
103 | COc1cc(C(=CC#N)c2cc(OC)c(OC)c(OC)c2)ccc1N | 123 to 125
